Data as given in paper PMC7531004, “Discovery of gramicidin A analogues with altered activities by multidimensional screening of a one-bead-one-compound library” (Nature Communications, 2020).
Where a SMILES comes first, the peptide text is derived from it. [ ]: non-standard residue; d: D form. The star is where a group is joined. NHCH2CH2OH = OCCN*; For = O=C*

Assays:
[1] = H+/Na+ transport assay of bead-derived peptides (one-point); assay type: biochemical; set-up: key: relative activity; mean of two control wells = 1.00; conditions: bead-derived peptide solution, EYPC/EYPG LUVs;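 further: relative to parent gramicidin A activity set to 1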
Summary of the method: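 Values are normalized fluorescence, with Triton X-100 defining 100% and untreated LUVs 0%, and the two control wells averaging 1.00. Vesicles carried 1.0 mM pyranine and included egg yolk phosphatidylglycerol. Peptides were incubated with them 30 min at room temperature.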

[2] = cell viability/%
Summary of the method: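 P388 cells at 1 × 10^4 cells/mL (final) were exposed to library peptides (stocks diluted 250-fold in RPMI1640/10% FBS) for 92 h at 37 °C, 5% CO2. Viable cells were counted by WST-1/1-methoxy PMS (4 h), absorbance 415 nm, and expressed as cell viability (%).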

[3] = system: Streptococcus pyogenes SSI-9; assay: Antibacterial activity assay of bead-derived peptides (three concentrations); assay type: cell-based; set-up: key: +++: inhibition by the 640-fold diluted peptide solution; ++: inhibition by the 160-fold diluted solution; +: inhibition by the 40-fold diluted solution; -: no inhibition; conditions: S. pyogenes, bead-derived peptide solution, three concentrations
Summary of the method: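 Library peptide stock applied undiluted, 4-fold and 16-fold diluted in DMSO to S. pyogenes SSI-9 (2 × 10^5 CFU) in cation-adjusted Mueller Hinton broth with 5% laked horse blood. After 18 h at 37 °C, growth judged by visible cell precipitation.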

| Structure (SMILES) | H+/Na+ transport activity normalized against the value of 1 (1.00) [1] | viability [2] [%] | antibacterial activity [3] |
| --- | --- | --- | --- |
| CC(C)C[C@@H](NC(=O)[C@H](C)NC(=O)CNC(=O)[C@@H](NC=O)C(C)C)C(=O)N[C@@H](C)C(=O)N[C@H](CC(C)C)C(=O)N[C@H](C(=O)N[C@H](CC(C)C)C(=O)N[C@@H](Cc1c[nH]c2ccccc12)C(=O)N[C@@H](C(=O)N[C@@H](Cc1c[nH]c2ccccc12)C(=O)N[C@H](CC(C)C)C(=O)N[C@@H](Cc1c[nH]c2ccccc12)C(=O)N[C@H](CC(C)C)C(=O)N[C@@H](Cc1c[nH]c2ccccc12)C(=O)NCCO)C(C)C)C(C)C [compound 2828] (For-VGA[dL]A[dL]V[dL]W[dV]W[dL]W[dL]W-NHCH2CH2OH) | 1.15 | 2.8 | - |
| CC(C)C[C@@H](NC(=O)[C@H](C)NC(=O)CNC(=O)[C@@H](NC=O)C(C)C)C(=O)N[C@@H](C)C(=O)N[C@@H](C(=O)N[C@H](C(=O)N[C@H](CC(C)C)C(=O)N[C@@H](Cc1c[nH]c2ccccc12)C(=O)N[C@H](CC(C)C)C(=O)N[C@@H](Cc1c[nH]c2ccccc12)C(=O)N[C@@H](C(=O)N[C@@H](Cc1c[nH]c2ccccc12)C(=O)N[C@@H](C(=O)N[C@@H](Cc1c[nH]c2ccccc12)C(=O)NCCO)C(C)C)C(C)C)C(C)C)[C@H](C)O [compound 1898] (For-VGA[dL]A[dT]V[dL]W[dL]W[dV]W[dV]W-NHCH2CH2OH) | 1.07 | 100 | - |
| CNC(=O)C[C@@H](NC(=O)[C@@H](NC(=O)[C@@H](CC(C)C)NC(=O)[C@H](C)NC(=O)[C@@H](CC(C)C)NC(=O)[C@H](C)NC(=O)CNC(=O)[C@@H](NC=O)C(C)C)C(C)C)C(=O)N[C@@H](Cc1c[nH]c2ccccc12)C(=O)N[C@@H](C(=O)N[C@@H](Cc1c[nH]c2ccccc12)C(=O)N[C@H](CC(C)C)C(=O)N[C@@H](Cc1c[nH]c2ccccc12)C(=O)N[C@H](CC(C)C)C(=O)N[C@@H](Cc1c[nH]c2ccccc12)C(=O)NCCO)C(C)C [compound 2978] (For-VGA[dL]A[dL]V[dD](NHMe)W[dV]W[dL]W[dL]W-NHCH2CH2OH) | 1.18 | 100 | - |
| CC(C)C[C@@H](NC(=O)[C@H](C)NC(=O)[C@H](NC(=O)[C@H](C)NC(=O)CNC(=O)[C@@H](NC=O)C(C)C)[C@H](C)O)C(=O)N[C@H](C(=O)N[C@@H](C(=O)N[C@@H](Cc1c[nH]c2ccccc12)C(=O)N[C@H](CC(C)C)C(=O)N[C@@H](Cc1c[nH]c2ccccc12)C(=O)N[C@@H](C(=O)N[C@@H](Cc1c[nH]c2ccccc12)C(=O)N[C@H](CC(C)C)C(=O)N[C@@H](Cc1c[nH]c2ccccc12)C(=O)NCCO)C(C)C)C(C)C)C(C)C [compound 10313] (For-VGA[dT]A[dL]V[dV]W[dL]W[dV]W[dL]W-NHCH2CH2OH) | 1.11 | 100 | - |
| CC(C)C[C@@H](NC(=O)[C@H](C)NC(=O)CNC(=O)[C@@H](NC=O)C(C)C)C(=O)N[C@@H](C)C(=O)N[C@@H](C(=O)N[C@H](C(=O)N[C@H](CC(C)C)C(=O)N[C@@H](Cc1c[nH]c2ccccc12)C(=O)N[C@H](CC(C)C)C(=O)N[C@@H](Cc1c[nH]c2ccccc12)C(=O)N[C@@H](C(=O)N[C@@H](Cc1c[nH]c2ccccc12)C(=O)N[C@@H](C(=O)N[C@@H](Cc1c[nH]c2ccccc12)C(=O)NCCO)[C@H](C)O)C(C)C)C(C)C)[C@H](C)O [compound 113] (For-VGA[dL]A[dT]V[dL]W[dL]W[dV]W[dT]W-NHCH2CH2OH) | 1.00 | 100 | - |
| CC(C)C[C@@H](NC(=O)[C@H](Cc1c[nH]c2ccccc12)NC(=O)[C@H](NC(=O)[C@H](Cc1c[nH]c2ccccc12)NC(=O)[C@H](NC(=O)[C@@H](NC(=O)[C@H](NC(=O)[C@H](C)NC(=O)[C@H](NC(=O)[C@H](C)NC(=O)CNC(=O)[C@@H](NC=O)C(C)C)C(C)C)[C@H](C)O)C(C)C)C(C)C)C(C)C)C(=O)N[C@@H](Cc1c[nH]c2ccccc12)C(=O)N[C@@H](C(=O)N[C@@H](Cc1c[nH]c2ccccc12)C(=O)NCCO)C(C)C [compound 7061] (For-VGA[dV]A[dT]V[dV]W[dV]W[dL]W[dV]W-NHCH2CH2OH) | 1.01 | 100 | - |
| CC(C)C[C@@H](NC(=O)[C@H](C)NC(=O)CNC(=O)[C@@H](NC=O)C(C)C)C(=O)N[C@@H](C)C(=O)N[C@H](CC(C)C)C(=O)N[C@H](C(=O)N[C@@H](C(=O)N[C@@H](Cc1c[nH]c2ccccc12)C(=O)N[C@H](CC(C)C)C(=O)N[C@@H](Cc1c[nH]c2ccccc12)C(=O)N[C@@H](C(=O)N[C@@H](Cc1c[nH]c2ccccc12)C(=O)N[C@@H](C(=O)N[C@@H](Cc1c[nH]c2ccccc12)C(=O)NCCO)C(C)C)[C@H](C)O)C(C)C)C(C)C [compound 65] (For-VGA[dL]A[dL]V[dV]W[dL]W[dT]W[dV]W-NHCH2CH2OH) | 1.08 | 100 | + |
| CC(C)C[C@@H](NC(=O)[C@H](C)NC(=O)CNC(=O)[C@@H](NC=O)C(C)C)C(=O)N[C@@H](C)C(=O)N[C@H](CC(C)C)C(=O)N[C@H](C(=O)N[C@@H](C(=O)N[C@@H](Cc1c[nH]c2ccccc12)C(=O)N[C@@H](C(=O)N[C@@H](Cc1c[nH]c2ccccc12)C(=O)N[C@@H](C(=O)N[C@@H](Cc1c[nH]c2ccccc12)C(=O)N[C@@H](C(=O)N[C@@H](Cc1c[nH]c2ccccc12)C(=O)NCCO)[C@H](C)O)C(C)C)C(C)C)C(C)C)C(C)C [compound 2793] (For-VGA[dL]A[dL]V[dV]W[dV]W[dV]W[dT]W-NHCH2CH2OH) | 1.08 | 84.6 | - |
| CC(C)C[C@@H](NC(=O)[C@H](C)NC(=O)CNC(=O)[C@@H](NC=O)C(C)C)C(=O)N[C@@H](C)C(=O)N[C@H](CC(C)C)C(=O)N[C@H](C(=O)N[C@@H](C(=O)N[C@@H](Cc1c[nH]c2ccccc12)C(=O)N[C@@H](C(=O)N[C@@H](Cc1c[nH]c2ccccc12)C(=O)N[C@@H](C(=O)N[C@@H](Cc1c[nH]c2ccccc12)C(=O)N[C@@H](C(=O)N[C@@H](Cc1c[nH]c2ccccc12)C(=O)NCCO)C(C)C)C(C)C)C(C)C)[C@H](C)O)C(C)C [compound 10609] (For-VGA[dL]A[dL]V[dT]W[dV]W[dV]W[dV]W-NHCH2CH2OH) | 1.15 | 79.4 | - |
| CC(C)C[C@@H](NC(=O)[C@H](C)NC(=O)CNC(=O)[C@@H](NC=O)C(C)C)C(=O)N[C@@H](C)C(=O)N[C@@H](C(=O)N[C@H](C(=O)N[C@@H](C(=O)N[C@@H](Cc1c[nH]c2ccccc12)C(=O)N[C@H](CC(C)C)C(=O)N[C@@H](Cc1c[nH]c2ccccc12)C(=O)N[C@@H](C(=O)N[C@@H](Cc1c[nH]c2ccccc12)C(=O)N[C@@H](C(=O)N[C@@H](Cc1c[nH]c2ccccc12)C(=O)NCCO)C(C)C)[C@H](C)O)C(C)C)C(C)C)C(C)C [compound 87] (For-VGA[dL]A[dV]V[dV]W[dL]W[dT]W[dV]W-NHCH2CH2OH) | 1.12 | 100 | ++ |
